Experimental data published in US4075409A, “Benzophenone derivatives” (Cassella Farbwerke Mainkur Aktiengesellschaft, priority 1973, dated 1978).
Counter-ions that a name gives are not always drawn.

Assays:
albino mice = assay: climbing test, central depressant (sedative) action on albino mice; format: in vivo; details: Mus musculus, po, read-out: Central depressant action in % (percentage of animals which no longer embark on the climbing work); for responders at 8 mg/kg: 8.0 mg/kg orally
Procedure: The pharmacological examination of the central depressant (sedative) action was carried out on albino mice with the aid of the climbing test described by P. K. KNEIP: Arch. int. pharmacodyn 126, 238 (1960) and R. DOMENJOZ and W. THEOBALD: Arch. int. pharmacodyn 120, 450 (1959).
In the final column of the table, the percentage of the experimental animals which no longer embark on the climbing work, which is normally readily undertaken, is given under the heading "Central depressant action in %".
(§1) The benzophenone derivatives were tested in the form of their hydrochlorides.

[1] = LD50 mice intraperitoneally; details: mouse, in vivo, ip, benzophenones as hydrochlorides
Procedure: as §1

Molecule `CC(Cc1ccccc1)NCC(=O)N(C)c1ccc([N+](=O)[O-])cc1C(=O)c1ccccc1` (racemic) [DL-2-(5-Phenyl-N-methyl-4-methyl-3-aza-pentanamido)-5-nitrobenzophenone hydrochloride] has a responders at 8 mg/kg (albino mice; as hydrochloride) of 50% and an LD50 [1] of 44 mg/kg.

For `CC(Cc1ccccc1)NCC(=O)N(C)c1ccc(Cl)cc1C(=O)c1ccccc1Cl` (racemic) [DL-2-(5-phenyl-N-methyl-4-methyl-3-aza-pentanamido)-2',5-dichlorobenzophenone hydrochloride], the responders at 8 mg/kg (albino mice; as hydrochloride) was 70% and the LD50 [1] was 24 mg/kg.

`CC(Cc1ccccc1)NCC(=O)N(C)c1ccc(Cl)cc1C(=O)c1ccccc1` (racemic) [DL-2-(5-phenyl-N-methyl-4-methyl-3-aza-pentanamido)-5-chlorobenzophenone hydrochloride] gave a responders at 8 mg/kg (albino mice; as hydrochloride) of 40% and an LD50 [1] of 240 mg/kg.

`CCOC(=O)NCC(=O)N(C)c1ccc([N+](=O)[O-])cc1C(=O)c1ccccc1` [2-(3-Ethoxycarbonyl)-N-methyl-3-aza-propanamido)-5-nitro-benzophenone] showed a responders at 10 mg/kg (albino mice; 10.0 mg/kg orally, as hydrochloride) of 70% and an LD50 [1] of 500 mg/kg.

`CCOC(=O)NCC(=O)N(C)c1ccc(Cl)cc1C(=O)c1ccccc1Cl` [2-(3-Ethoxycarbonyl-N-methyl-3-aza-propanamido)-2',5-dichlorobenzophenone] showed a responders at 8 mg/kg (albino mice; as hydrochloride) of 90% and an LD50 [1] of 240 mg/kg.

With `CN(CC(=O)Nc1ccc(Cl)cc1C(=O)c1ccccc1)C(=S)Nc1ccccc1` [2-(3-Phenylaminothiocarbonyl-3-aza-3-methyl-propanamido)-5-chlorobenzophenone] the responders at 8 mg/kg (albino mice; as hydrochloride) was 50% and the LD50 [1] was over 1000 mg/kg.

Work on `CCOC(=O)NCC(=O)N(C)c1ccc(Cl)cc1C(=O)c1ccccc1.Cl` [2-(3-ethoxycarbonyl-N-methyl-3-aza-propanamido)-5-chlorobenzophenone hydrochloride] yielded a responders at 4 mg/kg (albino mice; 4.0 mg/kg orally, as hydrochloride) of 30% and an LD50 [1] of 270 mg/kg.

Molecule `CCCCNC(=O)CCN(CCCC)CC(=O)N(C)c1ccc([N+](=O)[O-])cc1C(=O)c1ccccc1` [2-(5-n-Butylaminocarbonyl-N-methyl-3-n-butyl-3-aza-pentanamido)-5-nitro-benzophenone] has a responders at 8 mg/kg (albino mice; as hydrochloride) of 50% and an LD50 [1] of 500 mg/kg.

`CCCC(C)(COC(N)=O)COC(N)=O` [Meprobamate, reference compound] showed a responders at 70 mg/kg (albino mice; 70 mg/kg orally, comparison preparation) of 50%.
